PubChem BioAssay AID1259408 (Genetic Toxicology Data Bank (GENE-TOX), 2018)
The source made the active and inactive calls. No rule for the calls is given here.

System: GENE-TOX genotoxicity assays, various organisms and cells
Test: GENE-TOX mutagenicity studies
Conditions: for call: Assay Type: In vivo carcinogenicity studies
[1] = Species/Cell Type: Drosophila melanogaster, Assay Type: Sex-linked recessive lethal gene mutation, Assay Code: SRL+, Evaluation Type: Evaluation A (Pre-1980)
[2] = Species/Cell Type: Drosophila melanogaster, Sex: Male, Assay Type: Heritable translocation test, chromosome aberrations, Assay Code: DHT-, Evaluation Type: Evaluation A (Pre-1980)
[3] = Species/Cell Type: Human, Assay Type: Sister-chromatid exchange (SCE) in vitro, Assay Code: SC1+D, Dose Response: With dose response, Evaluation Type: Evaluation B (Post-1980)
[4] = Species/Cell Type: Salmonella typhimurium (one or more of the five standard strains: TA98, TA100, TA1535, TA1537, and TA1538), Assay Type: Histidine reverse gene mutation, Ames assay, Assay Code: SALT, Evaluation Type: Evaluation A (Pre-1980)
[5] = Species/Cell Type: Drosophila melanogaster, Assay Type: Sex-linked recessive lethal gene mutation, Assay Code: SRL-, Evaluation Type: Evaluation A (Pre-1980)
[6] = Species/Cell Type: Salmonella typhimurium (one or more of the five standard strains: TA98, TA100, TA1535, TA1537, and TA1538), Assay Type: Histidine reverse gene mutation, Ames assay, Assay Code: SAL+, Evaluation Type: Evaluation A (Pre-1980)

`CNNCc1ccc(C(=O)NC(C)C)cc1` was tested, and the mutagenic call (Species/Cell Type: Drosophila melanogaster, Assay Type: Aneuploidy, partial sex chromosome loss, chromosome aberrations, Assay Code: DAP-M, Evaluation Type: Evaluation A (Pre-1980)) was “inactive; negative”, the mutagenic call (Species/Cell Type: Drosophila melanogaster, Assay Type: Aneuploidy, whole sex chromosome loss, chromosome aberrations, Assay Code: DAC+M, Evaluation Type: Evaluation A (Pre-1980)) was “active; positive” and the mutagenic call [1] was “active; positive”. The mutagenic call [2] was “inactive; negative”, the mutagenic call (Species/Cell Type: Escherichia coli polA (W3119 vs P3478), Assay Type: Rec-assay, DNA effects (bacterial DNA repair), Assay Code: RE1+, Evaluation Type: Evaluation A (Pre-1980)) was “active; positive” and the mutagenic call (Species/Cell Type: Fischer rat embryo (RLV/1706) cells, Assay Type: Cell transformation, viral enhanced, Assay Code: CTR+, Evaluation Type: Evaluation A (Pre-1980)) was “active; positive”. The mutagenic call (Species/Cell Type: Human lymphocytes, Assay Type: Sister-chromatid exchange (SCE) in vitro, Assay Code: SCL+, Evaluation Type: Evaluation B (Post-1980)) was “active; positive”, the mutagenic call (Species/Cell Type: Human, Assay Type: Sister-chromatid exchange (SCE) in vitro, Assay Code: SC1+, Evaluation Type: Evaluation B (Post-1980)) was “active; positive” and the mutagenic call (Species/Cell Type: Mammalian polychromatic erythrocytes, Assay Type: Micronucleus test, chromosome aberrations, Assay Code: MNT+, Evaluation Type: Evaluation A (Pre-1980)) was “active; positive”. For the same molecule, the mutagenic call (Species/Cell Type: Mouse (BALB/c-3T3) cells, Assay Type: Cell transformation, Assay Code: CTB-, Evaluation Type: Evaluation A (Pre-1980)) was “inactive; negative”, the mutagenic call (Species/Cell Type: Mouse lymphoma (L5178Y) cells, Assay Type: Forward gene mutation at the thymidine kinase (TK) locus, chromosome aberrations, Assay Code: L51+, Evaluation Type: Evaluation A (Pre-1980)) was “active; positive” and the mutagenic call (Species/Cell Type: Mouse, Sex: Female, Assay Type: Spot test, gene mutation, Assay Code: MST+, Evaluation Type: Evaluation A (Pre-1980)) was “active; positive”. The mutagenic call (Species/Cell Type: Mouse, Sex: Male, Assay Type: Heritable translocation test, chromosome aberrations, Assay Code: HTT+, Evaluation Type: Evaluation A (Pre-1980)) was “active; positive”, the mutagenic call (Species/Cell Type: Mouse, Sex: Male, Assay Type: Specific locus test, gene mutation, Assay Code: SLT+, Evaluation Type: Evaluation A (Pre-1980)) was “active; positive” and the mutagenic call (Species/Cell Type: Mouse, Sex: Male, Assay Type: Sperm morphology, Assay Code: SPI+, Evaluation Type: Evaluation A (Pre-1980)) was “active; positive”. For the same molecule, the mutagenic call (Species/Cell Type: Neurospora crassa, Assay Type: Forward gene mutation, Assay Code: NEF+, Evaluation Type: Evaluation A (Pre-1980)) was “active; positive”, the call (Species/Cell Type: Nonhuman, Assay Code: CCG+, Evaluation Type: Evaluation A (Pre-1980)) was “active; positive” and the mutagenic call (Species/Cell Type: Nonhuman, Assay Type: Sister-chromatid exchange (SCE) in vivo, Assay Code: SC3+D, Dose Response: With dose response, Evaluation Type: Evaluation A (Pre-1980)) was “active; positive”. For the same molecule, the mutagenic call (Species/Cell Type: Rabbit, Sex: Male, Assay Type: Sperm morphology, Assay Code: SPR+, Evaluation Type: Evaluation A (Pre-1980)) was “active; positive”, the mutagenic call (Species/Cell Type: Rodents, Sex: Male, Assay Type: Dominant lethal test, Assay Code: DLT+, Evaluation Type: Evaluation A (Pre-1980)) was “active; positive” and the mutagenic call (Species/Cell Type: Saccharomyces cerevisiae, Assay Type: Mitotic recombination or gene conversion, Assay Code: YEC+/-*, Activation: With metabolic activation, Evaluation Type: Evaluation A (Pre-1980)) was “inactive; positive without activation, negative with activation”. For the same molecule, the mutagenic call (Species/Cell Type: Saccharomyces cerevisiae, Assay Type: Mitotic recombination or gene conversion, Assay Code: YEH+/-*, Activation: With metabolic activation, Evaluation Type: Evaluation A (Pre-1980)) was “inactive; positive without activation, negative with activation”, the mutagenic call (Species/Cell Type: Saccharomyces cerevisiae, Assay Type: Reverse gene mutation, Assay Code: YER+/-*, Activation: With metabolic activation, Evaluation Type: Evaluation A (Pre-1980)) was “inactive; positive without activation, negative with activation” and the mutagenic call (Species/Cell Type: Salmonella typhimurium (one or more of the five standard strains: TA98, TA100, TA1535, TA1537, and TA1538), Assay Type: Histidine reverse gene mutation, Ames assay, Assay Code: SAL-, Evaluation Type: Evaluation A (Pre-1980)) was “inactive; negative”. The mutagenic call (Species/Cell Type: Salmonella typhimurium, Assay Type: Forward and reverse gene mutation, host-mediated assay, Assay Code: HMA+, Evaluation Type: Evaluation A (Pre-1980)) was “active; positive” and the mutagenic call (Species/Cell Type: Syrian hamster embryo (SHE) cells, Assay Type: Cell transformation, clonal assay, Assay Code: CTC+, Evaluation Type: Evaluation A (Pre-1980)) was “active; positive”.
For `CNP(=O)(N1CC1)N1CC1`, the mutagenic call [1] was “active; positive”.
For `CC(C)Cc1ccc(C(C)C(=O)O)cc1` (stereo not drawn), the mutagenic call (Species/Cell Type: Human lymphocytes, Assay Type: Sister-chromatid exchange (SCE) in vivo, Assay Code: SCY+, Evaluation Type: Evaluation B (Post-1980)) was “active; positive”.
In the case of `CC(C)NNC(=O)c1ccncc1`, the mutagenic call (Species/Cell Type: Nonhuman, Assay Type: Sister-chromatid exchange (SCE) in vivo, Assay Code: SC3+, Evaluation Type: Evaluation B (Post-1980)) is reported as “active; positive”.
In the case of `COc1ccc(/C=C/Cl)cc1`, the mutagenic call (Species/Cell Type: Human lymphocytes, Assay Type: Sister-chromatid exchange (SCE) in vitro, Assay Code: SCL+D, Dose Response: With dose response, Evaluation Type: Evaluation B (Post-1980)) is reported as “active; positive” and the mutagenic call [3] is reported as “active; positive”.
`CCN(CC)CCn1c2ccc(C)c3c2c([n+]1[O-])-c1ccc(Cl)cc1S3` was tested, and the mutagenic call [4] was “no conclusion”.
`OC1c2c(c3cc4ccccc4cc3c3ccccc23)C=C[C@H]1O` (stereo partly drawn) was tested, and the mutagenic call (Species/Cell Type: Nonhuman, Assay Type: Sister-chromatid exchange (SCE) in vitro, Assay Code: SC2+D, Dose Response: With dose response, Evaluation Type: Evaluation B (Post-1980)) was “active; positive”.
`CNC(=O)CSP(=S)(OC)OC` was tested, and the mutagenic call (Species/Cell Type: Allium cepa, Assay Type: Chromosome aberrations, Assay Code: ALC+, Evaluation Type: Evaluation A (Pre-1980)) was “active; positive”, the mutagenic call (Species/Cell Type: Bacillus subtilis (H17 vs M45), Assay Type: Rec-assay, spot test, DNA effects (bacterial DNA repair), Assay Code: REWT, Evaluation Type: Evaluation A (Pre-1980)) was “no conclusion” and the mutagenic call [5] was “inactive; negative”. The mutagenic call [3] was “active; positive”, the mutagenic call (Species/Cell Type: Mammalian polychromatic erythrocytes, Assay Type: Micronucleus test, chromosome aberrations, Assay Code: MNT+U, Dose Response: Unconfirmed positive response, Evaluation Type: Evaluation B (Post-1980)) was “active; positive” and the call (Species/Cell Type: Nonhuman, Assay Code: CCG-, Evaluation Type: Evaluation A (Pre-1980)) was “inactive; negative”. For the same molecule, the mutagenic call (Species/Cell Type: Nonhuman, Assay Type: Sister-chromatid exchange (SCE) in vitro, Assay Code: SC2+, Evaluation Type: Evaluation B (Post-1980)) was “active; positive”, the mutagenic call (Species/Cell Type: Saccharomyces cerevisiae, Assay Type: Mitotic recombination or gene conversion, Assay Code: YEC+, Evaluation Type: Evaluation A (Pre-1980)) was “active; positive” and the mutagenic call (Species/Cell Type: Vicia faba, Assay Type: Chromosome aberrations, Assay Code: VIC+D, Dose Response: With dose response, Evaluation Type: Evaluation A (Pre-1980)) was “active; positive”.
With `Cl/C=C/CCl` the mutagenic call [6] was “active; positive”.
With `Cc1cc2ccc(F)cc2c2ccc3ccccc3c12` the mutagenic call [4] was “no conclusion”.
`NC1CCCCC1` was tested, and the mutagenic call (Species/Cell Type: Drosophila melanogaster, Assay Type: Aneuploidy, whole sex chromosome loss, chromosome aberrations, Assay Code: DACT, Evaluation Type: Evaluation A (Pre-1980)) was “no conclusion”, the mutagenic call [5] was “inactive; negative” and the mutagenic call [2] was “inactive; negative”. The mutagenic call (Species/Cell Type: Escherichia coli polA (W3119 vs P3478), Assay Type: Rec-assay, DNA effects (bacterial DNA repair), Assay Code: RE1T, Evaluation Type: Evaluation A (Pre-1980)) was “no conclusion”, the mutagenic call (Species/Cell Type: Human lymphocytes or leukocytes, Assay Type: Chromosome aberrations in vitro, Assay Code: CY7-, Evaluation Type: Evaluation A (Pre-1980)) was “inactive; negative” and the mutagenic call (Species/Cell Type: Mammalian germ cells, Sex: Male, Assay Type: Chromosome aberrations in vivo, Assay Code: CY9+, Evaluation Type: Evaluation A (Pre-1980)) was “active; positive”. The mutagenic call (Species/Cell Type: Nonhuman bone marrow, Assay Type: Chromosome aberrations, in vivo, Assay Code: CY#-, Evaluation Type: Evaluation A (Pre-1980)) was “inactive; negative”, the mutagenic call (Species/Cell Type: Nonhuman, Assay Type: Chromosome aberrations in vitro, Assay Code: CY&+D, Dose Response: With dose response, Evaluation Type: Evaluation A (Pre-1980)) was “active; positive” and the call (Species/Cell Type: Nonhuman, Assay Code: CCGT, Evaluation Type: Evaluation A (Pre-1980)) was “no conclusion”. The mutagenic call (Species/Cell Type: Rat, Sex: Male, Assay Type: Sperm morphology, Assay Code: SPA+, Evaluation Type: Evaluation A (Pre-1980)) was “active; positive”, the mutagenic call (Species/Cell Type: Rodents, Sex: Male, Assay Type: Dominant lethal test, Assay Code: DLT-, Evaluation Type: Evaluation A (Pre-1980)) was “inactive; negative” and the mutagenic call (Species/Cell Type: Rodents, Sex: Male, Assay Type: Dominant lethal test, Assay Code: DLTT, Evaluation Type: Evaluation A (Pre-1980)) was “no conclusion”. For the same molecule, the mutagenic call (Species/Cell Type: Salmonella typhimurium, Serratia marcesens, Assay Type: Forward and reverse gene mutation, host-mediated assay, Assay Code: HM2T, Evaluation Type: Evaluation A (Pre-1980)) was “no conclusion” and the mutagenic call (Species/Cell Type: Syrian hamster embryo (SA7/SHE) cells, Assay Type: Cell transformation, viral enhanced, Assay Code: CT7+, Evaluation Type: Evaluation A (Pre-1980)) was “active; positive”.
In the case of `COc1cc([N+](=O)[O-])c2ncccc2c1`, the mutagenic call [6] is reported as “active; positive”.
`COc1cc(O)c2c(c1)C(=O)c1cc(C)cc(O)c1C2=O` was tested, and the mutagenic call (Species/Cell Type: Salmonella typhimurium (one or more of the five standard strains: TA98, TA100, TA1535, TA1537, and TA1538), Assay Type: Histidine reverse gene mutation, Ames assay, Assay Code: SAL+*, Activation: With metabolic activation, Evaluation Type: Evaluation A (Pre-1980)) was “active; positive”.
For `CCN(CC)C(=O)/C(Cl)=C(\C)OP(=O)(OC)OC`, the mutagenic call (Species/Cell Type: Hordeum vulgare (barley), Assay Type: Chromosome aberrations, Assay Code: HOC+D, Dose Response: With dose response, Evaluation Type: Evaluation A (Pre-1980)) was “active; positive”, the mutagenic call (Species/Cell Type: Mammalian polychromatic erythrocytes, Assay Type: Micronucleus test, chromosome aberrations, Assay Code: MNT+, Evaluation Type: Evaluation B (Post-1980)) was “active; positive” and the mutagenic call (Species/Cell Type: Vicia faba, Assay Type: Chromosome aberrations, Assay Code: VIC+, Evaluation Type: Evaluation A (Pre-1980)) was “active; positive”.
